Test: xn = mol fraction of the nth substance listed

CC1OC(C)OC(C)O1 (centres undefined) + CC1COC(=O)O1
viscosity [mPa·s], 101.3 kPa
Settings	x1 = 0.091	x1 = 0.2019	x1 = 0.3007	x1 = 0.4055	x1 = 0.5011	x1 = 0.6022	x1 = 0.7006	x1 = 0.8028	x1 = 0.9028
293.15 K	2.641	2.499	2.364	2.215	2.07	1.91	1.75	1.577	1.402
298.15 K	–	–	–	–	–	–	–	1.412	1.26
303.15 K	2.161	2.027	1.907	1.779	1.661	1.531	1.402	1.268	1.134
308.15 K	1.969	1.843	1.732	1.614	1.505	1.385	1.267	1.144	1.024

COCCOCCOCCOC + CCCCCCCCCO
101 kPa
Settings	viscosity [mPa·s]
293.15 K, x1 = 0.06286	8.733
293.15 K, x1 = 0.0721	8.424
293.15 K, x1 = 0.157	6.409
293.15 K, x1 = 0.1967	5.797
293.15 K, x1 = 0.3999	3.779
293.15 K, x1 = 0.4952	3.246
293.15 K, x1 = 0.5949	2.852
293.15 K, x1 = 0.6909	2.575
293.15 K, x1 = 0.7539	2.434
293.15 K, x1 = 0.8907	2.226
293.15 K, x1 = 0.9525	2.165
303.15 K, x1 = 0.06693	6.211
303.15 K, x1 = 0.08755	5.811
303.15 K, x1 = 0.1949	4.339
303.15 K, x1 = 0.2889	3.545
303.15 K, x1 = 0.3982	2.936
303.15 K, x1 = 0.4875	2.576
303.15 K, x1 = 0.5926	2.286
303.15 K, x1 = 0.698	2.082
303.15 K, x1 = 0.7829	1.952
303.15 K, x1 = 0.9059	1.83
303.15 K, x1 = 0.9404	1.795
313.15 K, x1 = 0.05997	4.72
313.15 K, x1 = 0.1	4.218
313.15 K, x1 = 0.1977	3.34
313.15 K, x1 = 0.2965	2.774
313.15 K, x1 = 0.3974	2.365
313.15 K, x1 = 0.4862	2.111
313.15 K, x1 = 0.5834	1.9
313.15 K, x1 = 0.6643	1.767
313.15 K, x1 = 0.802	1.635
313.15 K, x1 = 0.915	1.521
313.15 K, x1 = 0.9497	1.503

Nc1ccccc1 + CCCCCCCO
viscosity [mPa·s], 100 kPa
Settings	x1 = 0.0821	x1 = 0.1633	x1 = 0.2429	x1 = 0.3578	x1 = 0.4421	x1 = 0.5517	x1 = 0.6514	x1 = 0.7434	x1 = 0.8522	x1 = 0.9421
293.15 K	6.21	5.64	5.21	4.74	4.45	4.11	3.94	3.86	3.86	4.1
303.15 K	4.48	4.11	3.82	3.46	3.23	2.99	2.86	2.79	2.82	2.97
313.15 K	3.31	3.05	2.85	2.61	2.46	2.3	2.22	2.19	2.22	2.34
323.15 K	2.51	2.36	2.2	2.01	1.91	1.8	1.75	1.73	1.75	1.84

COCCOCCOCCOC + ClC(Cl)Cl
298.15 K, 101 kPa
Settings	viscosity [mPa·s]
x1 = 0.0083	0.569
x1 = 0.0278	0.622
x1 = 0.0552	0.702
x1 = 0.0851	0.795
x1 = 0.1347	0.962
x1 = 0.195	1.16
x1 = 0.241	1.295
x1 = 0.2903	1.425
x1 = 0.3545	1.559
x1 = 0.4174	1.678
x1 = 0.4686	1.717
x1 = 0.5236	1.766
x1 = 0.5853	1.809
x1 = 0.631	1.836
x1 = 0.708	1.868
x1 = 0.7445	1.893
x1 = 0.8071	1.901
x1 = 0.8627	1.918
x1 = 0.9174	1.934
x2 = 0.0147	1.949

CC(C)(C)O + CCC(C)=O
viscosity [mPa·s]
Settings	298.15 K	303.15 K	308.15 K	313.15 K	318.15 K
101 kPa, x1 = 0.0925	0.3917	0.3748	0.3599	–	–
101 kPa, x1 = 0.1893	0.4117	0.3946	0.3737	–	–
101 kPa, x1 = 0.2885	0.4407	0.4203	0.3964	–	–
101 kPa, x1 = 0.3835	0.4875	0.452	0.422	–	–
101 kPa, x1 = 0.4877	0.5818	0.5397	0.4915	–	–
101 kPa, x1 = 0.5862	0.7295	0.6627	0.602	–	–
101 kPa, x1 = 0.6907	0.9865	0.8797	0.7882	–	–
101 kPa, x1 = 0.7895	1.424	1.237	1.085	–	–
101 kPa, x1 = 0.8935	2.253	1.879	1.588	–	–
101.3 kPa, x1 = 0.0985	0.423	0.401	0.38	0.361	0.343
101.3 kPa, x1 = 0.1968	0.464	0.438	0.413	0.391	0.37
101.3 kPa, x1 = 0.2962	0.52	0.487	0.457	0.429	0.405
101.3 kPa, x1 = 0.3941	0.595	0.553	0.514	0.48	0.449
101.3 kPa, x1 = 0.4949	0.705	0.647	0.596	0.551	0.511
101.3 kPa, x1 = 0.5928	0.859	0.779	0.708	0.647	0.593
101.3 kPa, x1 = 0.695	1.116	0.99	0.884	0.793	0.716
101.3 kPa, x1 = 0.8003	1.577	1.357	1.178	1.031	0.909
101.3 kPa, x1 = 0.9037	2.474	2.029	1.687	1.421	1.212

— the CheMixHub viscosity set
